# Source: patent US9999650B2, “Peptide and peptidomimetic inhibitors” (Ra Pharmaceuticals, Inc., priority 2012, dated 2018)
# Numbered stars: 1 amine (or outer) side, 2 acyl side, 3 side chain; on linkers, the order of the positions; unused ones are H or OH. Bridge positions count the residues as written; N and C are the ends. Square brackets hold non-standard residues; d marks the D form. Peptide text beside a SMILES is read from it. X9 = O=C(C[C@H](C(=O)[*:2])C1CCCCC1)[C@@H]1CCCN1[*:1]; NMeW = CN[C@@H](Cc1c[nH]c2ccccc12)C(=O)O; X1 = O=C(C(N[*:1])C1CCc2ccccc2C1)[*:2]; mXylylene = c1cc(C[*:1])cc(C[*:2])c1; NMeY = CN[C@@H](Cc1ccc(O)cc1)C(=O)O; X2 = O=C(Cc1cccc(C[*:2])c1)[*:1]; Chg = N[C@H](C(=O)O)C1CCCCC1; Tle = CC(C)(C)[C@H](N)C(=O)O; NMeS = CN[C@@H](CO)C(=O)O; NMeA = CN[C@@H](C)C(=O)O; Mpa = O=C(O)CCS; Sar = CNCC(=O)O
# Molecular target: T1, human plasma kallikrein (Homo sapiens, UniProt P03952)
# T1 construct: purchased Enzyme Research Laboratories HPKa 1303
# T1 sequence (P03952 20-390 limits assumed): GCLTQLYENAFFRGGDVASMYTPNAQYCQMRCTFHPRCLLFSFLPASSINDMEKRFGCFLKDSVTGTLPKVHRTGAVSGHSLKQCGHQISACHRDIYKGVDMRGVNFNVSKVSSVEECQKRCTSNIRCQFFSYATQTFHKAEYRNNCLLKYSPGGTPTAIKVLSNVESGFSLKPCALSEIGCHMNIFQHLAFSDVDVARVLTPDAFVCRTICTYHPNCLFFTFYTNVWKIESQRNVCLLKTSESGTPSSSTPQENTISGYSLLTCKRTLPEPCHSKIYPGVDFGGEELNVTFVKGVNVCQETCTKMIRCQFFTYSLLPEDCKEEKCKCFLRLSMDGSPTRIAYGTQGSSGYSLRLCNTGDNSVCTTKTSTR
# T1 sequence (P03952 391-638 limits assumed): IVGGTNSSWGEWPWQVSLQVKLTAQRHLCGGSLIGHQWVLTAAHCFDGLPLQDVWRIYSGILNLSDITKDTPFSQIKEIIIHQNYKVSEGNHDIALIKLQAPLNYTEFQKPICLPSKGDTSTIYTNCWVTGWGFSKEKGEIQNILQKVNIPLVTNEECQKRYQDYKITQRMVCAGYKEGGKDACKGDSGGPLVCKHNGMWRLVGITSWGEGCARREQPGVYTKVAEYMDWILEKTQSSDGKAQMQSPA
# Assay: Enzyme inhibition assay (fluorogenic substrate H-Pro-Phe-Arg-AMC)
# Format: biochemical
# Conditions: Kallikrein inhibitory activity; 1 nM activated human kallikrein, 500 μM H-Pro-Phe-Arg-AMC, 1 hour room temperature; read-out: Avg. IC50
# Procedure, shortened: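 Activated enzyme (1 nM final) was preincubated 5 min at room temperature with peptides in 10-point 8-fold dilutions. The buffer was 50 mM Tris-HCl pH 7.2, 150 mM NaCl, 10 mM CaCl2, 0.05% Brij-35. After 1 h at room temperature with 500 μM substrate (final), fluorescence was read at 360/460 nm to derive IC50.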
row,IC50 [µM],Structure (SMILES)
1,> 6.58,"CC(=O)N[C@@H](CS)C(=O)N[C@@H](CC(N)=O)C(=O)N[C@@H](Cc1ccc(O)cc1)C(=O)N[C@@H](Cc1c[nH]c2ccccc12)C(=O)N[C@H](CO)C(=O)N1CCC[C@H]1C(=O)N[C@@H](Cc1c[nH]c2ccccc12)C(=O)N[C@H](C(=O)N[C@@H](C)C(=O)N[C@@H](CS)C(N)=O)[C@@H](C)O [Compound R2230, Ac-CNYWsPWTAC-NH2] (Ac-CNYW[dS]PWTAC-NH2)"
2,> 1.95,"CC(=O)N[C@@H](CS)C(=O)N[C@@H](CC(N)=O)C(=O)N[C@H](Cc1ccc(O)cc1)C(=O)N[C@@H](Cc1c[nH]c2ccccc12)C(=O)N[C@@H](CO)C(=O)N1CCC[C@H]1C(=O)N[C@@H](Cc1c[nH]c2ccccc12)C(=O)N[C@H](C(=O)N[C@@H](C)C(=O)N[C@@H](CS)C(N)=O)[C@@H](C)O [Compound R2232, Ac-CNyWSPWTAC-NH2] (Ac-CN[dY]WSPWTAC-NH2)"
3,0.0027,"CC(=O)N[C@@H](CS)C(=O)N[C@@H](CC(N)=O)C(=O)N[C@@H](Cc1ccc(O)cc1)C(=O)N[C@@H](Cc1c[nH]c2ccccc12)C(=O)N[C@@H](CO)C(=O)N1CCC[C@H]1C(=O)N[C@@H](Cc1c[nH]c2ccccc12)C(=O)N[C@H](C(=O)N(C)[C@@H](C)C(=O)N[C@@H](CS)C(N)=O)[C@@H](C)O [Compound R2234, Ac-CNYWSPWT-nMeA-C-NH2] (Ac-CNYWSPWT[NMeA]C-NH2)"
4,> 4.9,"CC(=O)N[C@@H](CS)C(=O)N[C@@H](CC(N)=O)C(=O)N[C@@H](Cc1ccc(O)cc1)C(=O)N[C@@H](Cc1c[nH]c2ccccc12)C(=O)N[C@@H](CO)C(=O)N1CCC[C@H]1C(=O)N(C)[C@@H](Cc1c[nH]c2ccccc12)C(=O)N[C@H](C(=O)N[C@@H](C)C(=O)N[C@@H](CS)C(N)=O)[C@@H](C)O [Compound R2236, Ac-CNYWSP-nMeW-TAC-NH2] (Ac-CNYWSP[NMeW]TAC-NH2)"
5,> 13.9,"CC(=O)N[C@@H](CS)C(=O)N[C@@H](CC(N)=O)C(=O)N[C@@H](Cc1ccc(O)cc1)C(=O)N[C@@H](Cc1c[nH]c2ccccc12)C(=O)N(C)[C@@H](CO)C(=O)N1CCC[C@H]1C(=O)N[C@@H](Cc1c[nH]c2ccccc12)C(=O)N[C@H](C(=O)N[C@@H](C)C(=O)N[C@@H](CS)C(N)=O)[C@@H](C)O [Compound R2237, Ac-CNYW-nMeS-PWTAC-NH2] (Ac-CNYW[NMeS]PWTAC-NH2)"
6,> 4.52,"CC(=O)N[C@@H](CS)C(=O)N[C@@H](CC(N)=O)C(=O)N[C@@H](Cc1ccc(O)cc1)C(=O)N(C)[C@@H](Cc1c[nH]c2ccccc12)C(=O)N[C@@H](CO)C(=O)N1CCC[C@H]1C(=O)N[C@@H](Cc1c[nH]c2ccccc12)C(=O)N[C@H](C(=O)N[C@@H](C)C(=O)N[C@@H](CS)C(N)=O)[C@@H](C)O [Compound R2238, Ac-CNY-nMeW-SPWTAC-NH2] (Ac-CNY[NMeW]SPWTAC-NH2)"
7,> 12.5,"CC(=O)N[C@@H](CS)C(=O)N[C@@H](CC(N)=O)C(=O)N(C)[C@@H](Cc1ccc(O)cc1)C(=O)N[C@@H](Cc1c[nH]c2ccccc12)C(=O)N[C@@H](CO)C(=O)N1CCC[C@H]1C(=O)N[C@@H](Cc1c[nH]c2ccccc12)C(=O)N[C@H](C(=O)N[C@@H](C)C(=O)N[C@@H](CS)C(N)=O)[C@@H](C)O [Compound R2239, Ac-CN-nMeY-WSPWTAC-NH2] (Ac-CN[NMeY]WSPWTAC-NH2)"
8,> 75,CC[C@@H](C)[C@@H]1NC(=O)CCCCCCC/C=C/C[C@@H](C(=O)N[C@@H](CCCNC(=N)N)C(=O)N[C@H](C(N)=O)C(C)C)NC1=O [Compound R2240]
9,> 75,CC[C@@H](C)[C@@H]1NC(=O)CCCCCC/C=C/C[C@@H](C(=O)N[C@@H](CCCNC(=N)N)C(=O)N[C@H](C(N)=O)C(C)C)NC1=O [Compound R2241]
10,> 100,CC[C@@H](C)[C@@H]1NC(=O)CCCCC/C=C/C[C@@H](C(=O)N[C@@H](CCCNC(=N)N)C(=O)N[C@H](C(N)=O)C(C)C)NC1=O [Compound R2242]
11,> 50,CC[C@@H](C)[C@@H]1NC(=O)[C@@H]2CCCN2C(=O)CCCCCCCC/C=C/C[C@@H](C(=O)N[C@@H](CCCNC(=N)N)C(=O)N[C@H](C(N)=O)C(C)C)NC1=O [Compound R2243]
12,> 50,CC[C@@H](C)[C@@H]1NC(=O)[C@@H]2CCCN2C(=O)CCCCCCC/C=C/C[C@@H](C(=O)N[C@@H](CCCNC(=N)N)C(=O)N[C@H](C(N)=O)C(C)C)NC1=O [Compound R2244]
13,> 50,CC[C@@H](C)[C@@H]1NC(=O)[C@@H]2CCCN2C(=O)CCCCCC/C=C/C[C@@H](C(=O)N[C@@H](CCCNC(=N)N)C(=O)N[C@H](C(N)=O)C(C)C)NC1=O [Compound R2245]
14,> 50,CC[C@@H](C)[C@@H]1NC(=O)[C@@H]2CCCN2C(=O)CCCCC/C=C/C[C@@H](C(=O)N[C@@H](CCCNC(=N)N)C(=O)N[C@H](C(N)=O)C(C)C)NC1=O [Compound R2246]
15,0.474,CC(C)(C)[C@H](NC(=O)[C@H](CCCNC(=N)N)NC(=O)[C@@H]1CSCc2cccc(c2)CSCCC(=O)N2CCC[C@H]2C(=O)C[C@@H](C2CCCCC2)C(=O)N1)C(N)=O [Compound R2247] ([Mpa][X9]CR[Tle]-NH2; linker 1-3 via mXylylene)
16,> 100,CC(C)(C)[C@H](NC(=O)[C@H](CCCNC(=N)N)NC(=O)[C@@H]1CCCn2cc(nn2)CCCCC(=O)N2CCC[C@H]2C(=O)N[C@@H](C2CCCCC2)C(=O)N1)C(N)=O [Compound R2248]
17,> 100,CC(C)(C)[C@H](NC(=O)[C@H](CCCNC(=N)N)NC(=O)[C@@H]1CCn2cc(nn2)CCCCC(=O)N2CCC[C@H]2C(=O)N[C@@H](C2CCCCC2)C(=O)N1)C(N)=O [Compound R2249]
18,> 100,CC(C)(C)[C@H](NC(=O)[C@H](CCCNC(=N)N)NC(=O)[C@@H]1CCCn2cc(nn2)CCCCCC(=O)N2CCC[C@H]2C(=O)N[C@@H](C2CCCCC2)C(=O)N1)C(N)=O [Compound R2250]

row,IC50 [µM],Structure (SMILES)
1,> 100,CC(C)(C)[C@H](NC(=O)[C@H](CCCNC(=N)N)NC(=O)[C@@H]1CCn2cc(nn2)CCCCCC(=O)N2CCC[C@H]2C(=O)N[C@@H](C2CCCCC2)C(=O)N1)C(N)=O [Compound R2251]
2,> 100,CC(C)(C)[C@H](NC(=O)[C@H](CCCNC(=N)N)NC(=O)[C@@H]1COCc2cn(nn2)CCCCC(=O)N2CCC[C@H]2C(=O)N[C@@H](C2CCCCC2)C(=O)N1)C(N)=O [Compound R2252]
3,> 100,CC(C)(C)[C@H](NC(=O)[C@H](CCCNC(=N)N)NC(=O)[C@@H]1CCCc2cn(nn2)CCCCC(=O)N2CCC[C@H]2C(=O)N[C@@H](C2CCCCC2)C(=O)N1)C(N)=O [Compound R2253]
4,> 100,CC(C)(C)[C@H](NC(=O)[C@H](CCCNC(=N)N)NC(=O)[C@@H]1CCc2cn(nn2)CCCCCC(=O)N2CCC[C@H]2C(=O)N[C@@H](C2CCCCC2)C(=O)N1)C(N)=O [Compound R2254]
5,> 25,CC(C)(C)[C@H](NC(=O)[C@H](CCCNC(=N)N)NC(=O)[C@@H]1COc2cccc(c2)OCCCC(=O)N2CCC[C@H]2C(=O)N[C@@H](C2CCCCC2)C(=O)N1)C(N)=O [Compound R2255]
6,> 100,CC(C)(C)[C@H](NC(=O)[C@H](CCCNC(=N)N)NC(=O)[C@@H]1CCOc2cccc(c2)OCCCC(=O)N2CCC[C@H]2C(=O)N[C@@H](C2CCCCC2)C(=O)N1)C(N)=O [Compound R2256]
7,0.383,CN1CC(=O)N2CCC[C@H]2C(=O)N[C@@H](C2CCCCC2)C(=O)N[C@H](C(=O)N[C@@H](CCCNC(=N)N)C(=O)N[C@H](C(N)=O)C(C)(C)C)CSCc2cccc(c2)CC1=O [Compound R2257] ([Sar]P[Chg]CR[Tle]-NH2; linker N-4 via X2)
8,0.498,CC(C)(C)[C@H](NC(=O)[C@H](CCCNC(=N)N)NC(=O)[C@@H]1CSCc2cccc(c2)CC(=O)NCCC(=O)N2CCC[C@H]2C(=O)N[C@@H](C2CCCCC2)C(=O)N1)C(N)=O [Compound R2258]
9,1.46,CC(C)(C)[C@H](NC(=O)[C@H](CCCNC(=N)N)NC(=O)[C@@H]1CSCc2cccc(c2)/C=C/CC(=O)N2CCC[C@H]2C(=O)N[C@@H](C2CCCCC2)C(=O)N1)C(N)=O [Compound R2259]
10,4.68,CC(C)(C)[C@H](NC(=O)[C@H](CCCNC(=N)N)NC(=O)[C@@H]1CSCc2cccc(c2)/C=C/CCC(=O)N2CCC[C@H]2C(=O)N[C@@H](C2CCCCC2)C(=O)N1)C(N)=O [Compound R2260]
11,0.164,CC(C)(C)[C@H](NC(=O)[C@H](CCCNC(=N)N)NC(=O)[C@@H]1CSCc2cccc(c2)C/C=C/CC(=O)N2CCC[C@H]2C(=O)N[C@@H](C2CCCCC2)C(=O)N1)C(N)=O [Compound R2261]
12,> 100,CC(C)(C)[C@H](NC(=O)[C@H](CCCNC(=N)N)NC(=O)[C@@H]1C/C=C/c2cccc(c2)OCCCC(=O)N2CCC[C@H]2C(=O)N[C@@H](C2CCCCC2)C(=O)N1)C(N)=O [Compound R2262]
13,> 100,CC(C)(C)[C@H](NC(=O)[C@H](CCCNC(=N)N)NC(=O)[C@@H]1CCCc2cccc(c2)OCCCC(=O)N2CCC[C@H]2C(=O)N[C@@H](C2CCCCC2)C(=O)N1)C(N)=O [Compound R2263]
14,1.1,CC(C)(C)[C@H](NC(=O)[C@H](CCCNC(=N)N)NC(=O)[C@@H]1CSCc2cccc(c2)CC(=O)N[C@@H](CCC(=O)O)C(=O)N2CCC[C@H]2C(=O)N[C@@H](C2CCCCC2)C(=O)N1)C(N)=O [Compound R2264] (EP[Chg]CR[Tle]-NH2; linker N-4 via X2)
15,0.0392,CC(C)(C)[C@H](NC(=O)[C@H](CCCNC(=N)N)NC(=O)[C@@H]1CSCc2cccc(c2)CC(=O)NCC(=O)N2CCC[C@H]2C(=O)N[C@@H](C2CCCCC2)C(=O)N1)C(N)=O [Compound R2265] (GP[Chg]CR[Tle]-NH2; linker N-4 via X2)
16,0.118,CC(C)(C)[C@H](NC(=O)[C@H](CCCNC(=N)N)NC(=O)[C@@H]1CSCc2cccc(c2)CSCCC(=O)N2CCC[C@H]2C(=O)NC(C2CCc3ccccc3C2)C(=O)N1)C(N)=O (some centres unmarked) [Compound R2266] ([Mpa]P[X1]CR[Tle]-NH2; linker 1-4 via mXylylene)
17,0.0128,CC(C)(C)[C@H](NC(=O)[C@H](CCCNC(=N)N)NC(=O)[C@@H]1CSCc2cccc(c2)CSCCC(=O)N2CCC[C@H]2C(=O)NC(C2CCc3ccccc3C2)C(=O)N1)C(N)=O (some centres unmarked) [Compound R2267] ([Mpa]P[X1]CR[Tle]-NH2; linker 1-4 via mXylylene)
